Laboratory results from patent US9095598B2, “Stilbenoid derivatives and their uses” (The Board of Trustees of the University of Arkansas, priority 2010, dated 2015).
Like-named read-outs stand apart in the source and are kept apart here.

What was measured:
[1] = target: T1, CB1 receptors (mouse brain-mCB1 membranes) (Mus musculus, UniProt P47746); test: CB1 receptor binding, mouse brain membranes, 3H-CP 55,940 displacement
T1 construct: from tissue; host or cells: mouse brain membranes
Description: (§1) Membrane preparations were prepared from mouse brain to examine CB1 binding. For CB2 binding, membrane preparations were prepared from CHO cells stably transformed with human CB2.

[2] = target: T2, human recombinant UGT1A10 (Homo sapiens, UniProt Q9HAW8); test: Glucuronidation by recombinant human UGT1A10 (activity screen and kinetic constants); conditions: for glucuronide formation, in words (FIG. 1): substrate 250 μM, UDP-GlcUA 4 mM
T2 sequence (Q9HAW8 26-530): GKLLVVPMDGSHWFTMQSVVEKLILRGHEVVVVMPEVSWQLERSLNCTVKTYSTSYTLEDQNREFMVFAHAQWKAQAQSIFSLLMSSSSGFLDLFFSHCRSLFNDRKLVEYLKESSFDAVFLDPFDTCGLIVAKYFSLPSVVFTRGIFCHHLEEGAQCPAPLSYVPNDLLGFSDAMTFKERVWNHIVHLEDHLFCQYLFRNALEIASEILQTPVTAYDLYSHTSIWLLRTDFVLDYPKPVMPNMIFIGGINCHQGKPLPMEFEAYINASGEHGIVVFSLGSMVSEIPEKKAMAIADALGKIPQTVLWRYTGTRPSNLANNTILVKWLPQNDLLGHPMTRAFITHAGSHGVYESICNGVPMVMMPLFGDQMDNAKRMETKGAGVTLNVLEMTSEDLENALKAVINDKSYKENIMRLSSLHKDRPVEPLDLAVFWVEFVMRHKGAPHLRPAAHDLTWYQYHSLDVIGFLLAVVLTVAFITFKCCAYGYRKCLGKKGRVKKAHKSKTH
Description: (§2) Eight human recombinant UGT1A isoforms (UGT1A1, 1A3, 1A4, 1A6, 1A7, 1A8, 1A9, and 1A10; 5 μg) expressed as His-tag proteins in baculovirus-infected Sf9 insect cells and human liver microsomes (from one donor; HL2; 50 μg) and human intestinal microsomes (from two donors; HI36 and HI41; 50 μg) were evaluated for their ability to glucuronidate these four compounds. The concentrations of the substrate and co-substrate (i.e., UDP-GlcUA) were 250 μM and 4 mM, respectively. Glucuronidation products were analyzed by HPLC and LCMS/MS.
(§3) The kinetic constants of the glucuronidation reactions using recombinant human UGT1A1 and UGT1A10 were determined by measuring the enzyme activity in the presence of increasing concentrations of substrate (see FIG. 2).

[3] = target: T3, human CB2 (Homo sapiens, UniProt P34972); test: CB2 receptor binding, CHO-hCB2 membranes, 3H-CP 55,940 displacement; conditions: 0.2 nM 3H-CP 55,940, 90 min room temperature
T3 construct: expressed in transfected cells; host or cells: CHO cells, stably transformed; membrane preparations
Description: as §1

[4] = target: T4, human recombinant UGT1A1 (Homo sapiens, UniProt P22309); test: Glucuronidation by recombinant human UGT1A1 (activity screen and kinetic constants); conditions: for glucuronide formation, in words (FIG. 1): substrate 250 μM, UDP-GlcUA 4 mM; for Kinetics (model): — = No activity
T4 sequence (P22309 26-533): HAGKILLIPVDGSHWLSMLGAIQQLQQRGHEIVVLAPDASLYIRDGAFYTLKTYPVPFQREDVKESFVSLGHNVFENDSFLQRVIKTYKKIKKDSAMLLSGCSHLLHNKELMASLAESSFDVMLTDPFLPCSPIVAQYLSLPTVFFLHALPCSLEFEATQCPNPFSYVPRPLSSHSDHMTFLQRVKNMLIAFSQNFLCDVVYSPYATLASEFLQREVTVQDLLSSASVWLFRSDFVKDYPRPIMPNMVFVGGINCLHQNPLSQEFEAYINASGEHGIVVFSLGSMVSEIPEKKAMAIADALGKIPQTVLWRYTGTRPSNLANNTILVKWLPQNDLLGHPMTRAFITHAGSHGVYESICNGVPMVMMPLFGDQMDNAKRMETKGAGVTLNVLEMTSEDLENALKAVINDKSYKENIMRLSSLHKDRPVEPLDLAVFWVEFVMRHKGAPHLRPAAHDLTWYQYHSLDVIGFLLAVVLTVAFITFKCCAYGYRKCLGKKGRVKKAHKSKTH
Description: as §2, §3

[5] = test system: CB1 receptors; assay type: biochemical, mouse; conditions: 10 μM, 30 min at 30° C.
[6] = target: T5, CB1 receptors (Mus musculus, UniProt P47746); assay type: biochemical
T5 construct: from tissue; host or cells: mouse brain membranes

[7] = test system: sepsis-induced renal injury (CLP); test: Murine cecal ligation and puncture (CLP) model of sepsis-induced renal injury; assay type: in vivo, mice; conditions: 30 mg/kg i.p. 30 min prior to and 6 hr post CLP; 18 hr post CLP
From the text: Control (sham) mice underwent surgery but not CLP. Each treatment group contained 4-5 mice. Renal ONOO^− generation (rhodamine fluorescence) and renal peritubular capillary perfusion were quantified using intravital video microscopy (IVVM) on anesthetized mice in each of the treatment groups.

[8] = target: T2, human recombinant UGT1A10; conditions: 250 μM
Description: as §2, §3

[9] = target: T4, human recombinant UGT1A1; conditions: 250 μM
Description: as §2, §3

[10] = product 4′-glucuronide (4′G), USI = substrate inhibition

T5 sequence (P47746 whole entry): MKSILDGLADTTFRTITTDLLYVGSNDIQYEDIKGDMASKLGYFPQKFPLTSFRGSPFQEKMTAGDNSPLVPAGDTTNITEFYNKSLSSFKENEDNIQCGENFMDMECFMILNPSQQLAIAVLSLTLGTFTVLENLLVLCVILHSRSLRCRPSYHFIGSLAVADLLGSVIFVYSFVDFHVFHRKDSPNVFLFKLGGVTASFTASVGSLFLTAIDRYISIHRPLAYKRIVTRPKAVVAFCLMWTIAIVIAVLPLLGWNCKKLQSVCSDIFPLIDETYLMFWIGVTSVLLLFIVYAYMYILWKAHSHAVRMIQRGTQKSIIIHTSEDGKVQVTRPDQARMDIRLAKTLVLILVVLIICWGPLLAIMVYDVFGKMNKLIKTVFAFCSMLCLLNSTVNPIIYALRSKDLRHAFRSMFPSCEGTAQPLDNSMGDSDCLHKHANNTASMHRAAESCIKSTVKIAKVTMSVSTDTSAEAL
T3 sequence (P34972 whole entry): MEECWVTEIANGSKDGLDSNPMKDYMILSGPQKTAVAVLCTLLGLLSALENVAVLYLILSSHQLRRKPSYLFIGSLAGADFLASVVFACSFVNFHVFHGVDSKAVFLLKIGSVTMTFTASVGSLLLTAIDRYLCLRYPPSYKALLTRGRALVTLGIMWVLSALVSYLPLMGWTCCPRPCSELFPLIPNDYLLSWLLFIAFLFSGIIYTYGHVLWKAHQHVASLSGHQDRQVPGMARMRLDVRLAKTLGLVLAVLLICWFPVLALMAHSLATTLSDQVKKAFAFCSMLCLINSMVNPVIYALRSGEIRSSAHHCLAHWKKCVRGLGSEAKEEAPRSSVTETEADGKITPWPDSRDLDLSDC
T1 sequence (P47746 whole entry): as the sequence (P47746 whole entry) above

**Q.** What does the source list for trans-arachidin-1 [tA1]?
**A.** enhancement of binding affinity for CB1 (isoprenyl plus additional hydroxyl group) [1]: 2 fold; Kinetics (model) [2, 10]: substrate inhibition kinetics and USI; glucuronide formation, in words (FIG. 1) [2]: formation of the 3-O-Gluc; Ki [3]: 12.6 ± 1.7 µM; glucuronide formation, in words (FIG. 1) [4]: completely blocked formation of any Gluc; effect on basal G-protein activity, in words [5]: markedly reduced; increase (shift-to-the-right) in the ED50 of CP-55,940 ([6]; 10 μM tA-1): 7 fold; maximal response produced by CP-55,940 in presence of test compound ([6]; with tA-1 (10 μM)): 0.22+/−0.04 pmole/mg protein

**Q.** For CC(C)/C=C/c1c(O)cc(/C=C/c2ccc(O)cc2)cc1O [tA3, trans-arachidin-3], which “Kinetics (model)” value [2, 10] is on record?
**A.** The value was “USI”.

**Q.** What about the “Kinetics (model)” value ([2]; product 4′-glucuronide (4′G), USI = substrate inhibition, listed as 1A3) of the same molecule?
**A.** Its value is “substrate inhibition kinetics”.

**Q.** What about the “glucuronide formation, in words (FIG. 1)” value [2] of the same molecule?
**A.** Its value is “significant inhibition of 3-O-glucuronidation”.

**Q.** What about the Ki [3] of the same molecule?
**A.** The Ki was 11.3 ± 0.6 µM.

**Q.** What about the “Kinetics (model)” value ([4]; product 3-glucuronide (3G)) of the same molecule?
**A.** Its value is “M-M”.

**Q.** What about the “Kinetics (model)” value ([4]; product 4′-glucuronide (4′G)) of the same molecule?
**A.** The value was “M-M”.

**Q.** And the “glucuronide formation, in words (FIG. 1)” value [4]?
**A.** The value was “significant inhibition of 3-O-glucuronidation”.

**Q.** And the “effect on basal G-protein activity, in words” value [5]?
**A.** Its value is “little effect”.

**Q.** With Oc1cc(O)cc(/C=C/c2ccc(O)c(O)c2)c1 [tPice, trans-piceatannol] as the molecule, how does the “Kinetics (model)” value ([2]; product 3-glucuronide (3G), — = No activity) read?
**A.** The value was “M-M”.

**Q.** What about the “Kinetics (model)” value [2, 10] of the same molecule?
**A.** The value was “Hill”.

**Q.** And the “Kinetics (model)” value ([4]; product 3-glucuronide (3G))?
**A.** Its value is “M-M”.

**Q.** What about the “Kinetics (model)” value ([4]; product 4′-glucuronide (4′G)) of the same molecule?
**A.** The value was “M-M”.

**Q.** And the “effect on basal G-protein activity, in words” value [5]?
**A.** The value was “markedly reduced”.

**Q.** How did the “effect on G-protein activity, in words” value ([6]; 1 μM, 30 min at 30° C.) turn out when CCCCCCC(C)(C)c1ccc([C@@H]2C[C@H](O)CC[C@H]2CCCO)c(O)c1 [CP-55,940, reference compound] was run?
**A.** Its value is “stimulated”.

**Q.** And the “maximal response produced by CP-55,940” value ([6]; CP-55,940 alone)?
**A.** Its value is 0.34+/−0.03 pmole/mg protein.

**Q.** How did the “effect of co-incubation on CP-55,940 stimulation and AM251 inhibition of G-protein activity” value ([6]; data not shown) turn out when CC1=CC[C@@H]2[C@@H](C1)c1c(O)cc(CC#CCCCNS(C)(=O)=O)cc1OC2(C)C [O-2050, reference compound] was run?
**A.** Its value is “blocked”.

**Q.** Which Ki [3] does the source give for Oc1ccc(/C=C/c2cc(O)cc(O)c2)cc1 [tRes, trans-resveratrol] here?
**A.** Its Ki is 65.5 ± 12 µM.

**Q.** What about the “RNS generation in the kidney (rhodamine fluorescence, IVVM)” value [7] of the same molecule?
**A.** Its value is “blocked RNS generation in the kidney”.

**Q.** And the “renal peritubular capillary perfusion (IVVM)” value [7]?
**A.** Its value is “preserved renal capillary perfusion”.

**Q.** What about the “effect on basal G-protein activity, in words” value [5] of the same molecule?
**A.** Its value is “little effect”.

**Q.** What about the “glucuronide formation, in words (FIG. 1)” value [8] of the same molecule?
**A.** Its value is “glucuronidated to 3-O— and 4′-O-Glucs”.

**Q.** And the “glucuronide formation, in words (FIG. 1)” value [9]?
**A.** The value was “glucuronidated to 3-O— and 4′-O-Glucs”.
